Source: ChEMBL document CHEMBL1777735, “Lipophilicity of acidic compounds: impact of ion pair partitioning on drug design” (Bioorg Med Chem Lett, 2011)

Tests used:
[1] = Plasma protein binding in human; assay type: ADME, cell-free; details: read-out: PPB (converted)
[2] = 1-Octanol-water distribution coefficient, log D of the compound at pH 7.4 by shake-flask method; assay type: physicochemical
[3] = 1-Octanol-sodium citrate buffer distribution coefficient, log D of the compound at pH 5.5 by shake-flask method; assay type: physicochemical
[4] = Lipophilicity, log P of the compound; assay type: physicochemical; details: octanol/water
[5] = 1-octanol/sodium citrate buffer, read-out: logD

| fraction unbound [1] | logD [2] | logD [3, 5] | logP ([4]; read-out: logP) | logP [4] | logD ([3]; octanol/water) | SMILES |
| --- | --- | --- | --- | --- | --- | --- |
| 0.5 | -1.8 | -0.5 |  |  |  | CCOC(=O)[C@H](CCc1ccccc1)N[C@@H](C)C(=O)N1CCC[C@H]1C(=O)O |
| 0.25 | -0.3 | 1.3 | 2.4 |  |  | CC(=O)c1ccc(S(=O)(=O)NC(=O)NC2CCCCC2)cc1 [ACETOHEXAMIDE] |
| < 0.001 | 1 | 2.5 | 3.1 |  |  | O=C(O)CCc1nc(-c2ccccc2)c(-c2ccccc2)o1 [OXAPROZIN] |
| 0.007 | -0.3 | 1.1 |  |  |  | CN1C(C(=O)Nc2ccccn2)=C(O)c2ccccc2S1(=O)=O [PIROXICAM] |
| 0.105 |  |  |  |  |  | CCOC(=O)[C@H](CCc1ccccc1)N[C@@H](C)C(=O)N1[C@H](C(=O)O)C[C@@H]2CCC[C@@H]21 |
| 0.009 |  |  |  |  |  | CCc1cccc2c3c([nH]c12)C(CC)(CC(=O)O)OCC3 (stereo unspecified) [ETODOLAC] |
| 0.065 | -1.6 | 0 |  |  |  | Cc1nnc(NS(=O)(=O)c2ccc(N)cc2)s1 [SULFAMETHIZOLE] |
| 0.009 | 2.2 | 3.2 |  |  |  | CCOc1cc(CC(=O)N[C@@H](CC(C)C)c2ccccc2N2CCCCC2)ccc1C(=O)O [REPAGLINIDE] |
| 0.02 | 0.6 | 2.2 |  |  |  | CCCCc1nc(Cl)c(CO)n1Cc1ccc(-c2ccccc2-c2nn[nH]n2)cc1 [LOSARTAN] |
| 0.003 | -1 | 0.8 | 2.7 |  |  | Cc1ccc(C(=O)c2ccc(CC(=O)O)n2C)cc1 [TOLMETIN] |
| 0.002 | 2.2 | 3.5 |  |  |  | COc1ccc(Cl)cc1C(=O)NCCc1ccc(S(=O)(=O)NC(=O)NC2CCCCC2)cc1 [GLYBURIDE] |
| 0.025 | 0.5 | 2.3 | 3 |  |  | O=C(O)CCn1c2c(c3ccccc31)C[C@H](NS(=O)(=O)c1ccc(F)cc1)CC2 [RAMATROBAN] |
| 0.041 |  |  |  |  |  | CCOC(=O)[C@H](CCc1ccccc1)N[C@H]1CCc2ccccc2N(CC(=O)O)C1=O [BENAZEPRIL] |
| 0.004 | 2.8 |  |  | 2.6 | 3.7 | CN(C)S(=O)(=O)NC(=O)CCCc1c(-c2ccc(F)cc2)[nH]c2ccc(C#N)cc12 |
|  | 2.2 | 3.5 |  |  |  | Cc1cc(SCc2sc(-c3ccc(C(F)(F)F)cc3)nc2C)ccc1OCC(=O)O [GW501516] |
| 0.02 | 0.9 | 2.4 |  |  |  | CCCCC1=NC2(CCCC2)C(=O)N1Cc1ccc(-c2ccccc2-c2nnn[nH]2)cc1 [IRBESARTAN] |
| 0.016 | -0.6 | 1.1 |  |  |  | CCCCNc1cc(C(=O)O)cc(S(N)(=O)=O)c1Oc1ccccc1 [BUMETANIDE] |
| 0.06 | 0 | 1.2 |  |  |  | Cc1ccc(S(=O)(=O)NC(=O)NN2CCCCCC2)cc1 [TOLAZAMIDE] |

| SMILES | fraction unbound [1] | logD [2] | logD [3, 5] | logP ([4]; read-out: logP) | logP [4] | logD ([3]; octanol/water) |
| --- | --- | --- | --- | --- | --- | --- |
| O=C(c1ccccc1)c1ccc2n1CCC2C(=O)O (stereo unspecified) [KETOROLAC] | 0.008 | -1 | 0.6 | 2.7 |  |  |
| O=C(O)CCCc1ccc(N(CCCl)CCCl)cc1 [CHLORAMBUCIL] | 0.01 | 1.4 | 3.2 |  |  |  |
| COc1ccc2c(c1)c(CC(=O)O)c(C)n2C(=O)c1ccc(Cl)cc1 [INDOMETHACIN] |  |  | 2.7 | 3.8 |  |  |
